Measured values published in patent US20250057959A1, “PHOSPHANE GOLD(I)-N-HETEROCYCLIC CARBENE COMPLEXES FOR TREATING CANCER” (KING FAHD UNIVERSITY OF PETROLEUM AND MINERALS, priority 2023, published 2025).
“Also recorded” adds a separate entry of the source.

How the values were obtained:
A2780cis = assay: MTT cell viability assay, cisplatin-resistant A2780cis; format: cell-based, human; details: for Fold resistance (A2780cis/A2780): IC50 A2780cis/IC50 A2780
Description: Human epithelial ovarian cancer A2780 cell line and its cisplatin-resistant clone A2780cis were obtained from Sigma-Aldrich (Milano, Italy). SKOV3 (HTB-77) cells were from the American Type Culture Collection (ATCC). The two cell lines were selected to reflect the two different stages of OvCa and different sensitivity to cisplatin. A2780 cell lines were derived from the ovarian tumor tissue of an untreated patient, while SKOV3 was from the ascitic fluids (after metastasis). […] Cell lines were cultured in RPMI-1640 medium containing 10% fetal bovine serum (FBS) (Gibco, Thermo Fisher Scientific, U.S.A), 1% (v/v) of penicillin (10,000 units/mL)-streptomycin (10 mg/mL), and 1% (v/v) L-glutamine (200 mM) (all from Sigma- Aldrich) at 37° C. in a 5% CO2 fully humidified atmosphere. […] Cisplatin was included as a reference drug. […] Fold resistance was calculated as the ratio of the IC50 of the A2780cis to that of the parental cell line A2780.

SKOV3 cells = assay: MTT cell viability assay, SKOV3; format: cell-based, human; details: 72 hours treatment
Description: Human epithelial ovarian cancer A2780 cell line and its cisplatin-resistant clone A2780cis were obtained from Sigma-Aldrich (Milano, Italy). SKOV3 (HTB-77) cells were from the American Type Culture Collection (ATCC). The two cell lines were selected to reflect the two different stages of OvCa and different sensitivity to cisplatin. A2780 cell lines were derived from the ovarian tumor tissue of an untreated patient, while SKOV3 was from the ascitic fluids (after metastasis). Cells were authenticated in the laboratory using PowerPlex 16 HS system (Promega) and GeneMapper ID version 3.2.1 to identify DNA short tandem repeats. Cell lines were cultured in RPMI-1640 medium containing 10% fetal bovine serum (FBS) (Gibco, Thermo Fisher Scientific, U.S.A), 1% (v/v) of penicillin (10,000 units/mL)-streptomycin (10 mg/mL), and 1% (v/v) L-glutamine (200 mM) (all from Sigma- Aldrich) at 37° C. in a 5% CO2 fully humidified atmosphere. A2780cis cells were continuously exposed to 1 μM cisplatin to maintain cisplatin resistance. Adipose-derived stem cells (ADSCs) were purchased from Lonza and maintained in mesenchymal-stem-cell growth medium Bulletkit MSCGM (Lonza, Verviers, Belgium).
4.0×10^3/mL A2780, A2780cis, and SKOV3 cells were seeded in 96-well microplates in 100 μL of culture medium. Cells were allowed to adhere for 24 hours and then were treated in triplicate with increasing concentrations of gold compounds (0-1 μM). Cisplatin was included as a reference drug. Cell viability was evaluated using 3-(4,5-dimethylthiazol-2-yl)-2,5-diphenyltetrazolium bromide (MTT) assay (Sigma-Aldrich) after 72 hours of treatment. Half maximal inhibitory concentrations (IC50) were calculated using the CalcuSyn software version 2 (Biosoft, Ferguson, MO, USA). Fold resistance was calculated as the ratio of the IC50 of the A2780cis to that of the parental cell line A2780.

A2780 and A2780cis cells [1] = assay: Apoptosis by flow cytometry (annexin-V/7AAD, caspase-3,7, BAX, Bcl-2); format: cell-based, human
Protocol: (§1) Results were detected by flow cytometry on a BD FACSCanto II flow cytometer. Data were analyzed using BD FACSDiva version 8.0.1 software (BD Biosciences) unless otherwise indicated. To evaluate apoptosis, tumor cells were treated for 48 hours and then stained for 15 minutes with FITC annexin-V (Thermo Fisher Scientific) and 7AAD (BD Pharmingen). […] For B-cell lymphoma/leukemia-2 (Bcl-2) and Bcl-2 associated x protein (Bax) evaluation, cells were fixed and permeabilized using FIX & PERM cell fixation and cell permeabilization kit (Life Technologies). […] The distribution of cells in different cell cycle phases was quantified using ModFit LT 4.0 software (Verity Software House, Topsham, ME, USA).

A2780 and A2780cis cells [2] = assay: mitROS generation (MitoSOX red), flow cytometry; format: cell-based, human
Protocol: as §1

OvCa cells = assay: Western blot of cell cycle regulatory proteins; format: cell-based, human; details: 24 hours
Protocol: Whole-cell lysates were prepared using cold RIPA buffer [150 mM NaCl, 50 mM Tris-HCl (pH 8), 0.1% SDS, 1% Igepal, and 0.5% desoxycholate sodium] containing a protease inhibitor cocktail (Roche Diagnostics S.p.a., Milan, Italy), phosphatase inhibitors 1 mM Na3VO4 and 1 mM NaF (Sigma-Aldrich). Protein concentrations were determined using the BioRad protein assay (Bio-Rad Laboratories, Inc., CA, USA). Equal amounts of proteins were mixed with Laemmli buffer, separated in 4-20% SDS-PAGE (Criterion Precast Gel, BioRad), and blotted onto a nitrocellulose membrane (Amersham, GE Healthcare). Membrane strips were blocked with EveryBilot blocking buffer (Bio-Rad) and incubated at 4° C. overnight with primary antibodies probed with the appropriate antibodies (Table 2) and developed using Immobilon Western chemioluminescent HRP substrate. Images were acquired using a ChemiDoc XRS system (Bio-Rad).

SKOV3-MCTSs = assay: SKOV3-MCTS spheroid volume; format: cell-based, human; details: for SKOV3-MCTS volume decrease with respect to control: 0.5 μM
Protocol: To generate single spheroids with defined size, 1.0×10^3/mL SKOV3 cells were seeded 4 days under nonadherent conditions in U-bottom 96-well plates coated twice with 20 mg/mL of poly(2-hydroxyethyl methacrylate) (poly-HEMA; Sigma) in 95% ethanol. Spheroid size was measured at days 0, 3, and 7 after drug treatment initiation using an inverted microscope (Eclipse TS/100, Nikon, Tokyo, Japan) with photomicrographic systems DS camera control unit DS-L2. Spheroid volumes were calculated using the formula (width^2×length×3.14)/6.

[3] = tested on: thioredoxin reductase (TrxR); details: OvCa cells treated 24 hours
Protocol: To evaluate both the thioredoxin reductase (TrxR) and proteasome activity, cells were treated with complex 6 for 24 hours and then lysed in 50 mM Tris-HCl, pH 7.6, 0.1% Triton X-100, 0.9% NaCl. TrxR (EC 1.8.1.9) was assayed using thioredoxin reductase assay kit (Sigma-Aldrich). Enzyme activity was determined by reading the absorbance at 412 nm using a spectrophotometer (Biomate 3 Thermo Spectronic, Thermo Electonic Corporation, Monza, Italy).
The enzymatic activity was normalized to the protein concentration and determined using the Bio-Rad protein assay (protein assay dye reagent concentrate, Bio-Rad Laboratories, Segrate, Italy).

SMILES: CC(C)c1cccc(C(C)C)c1-n1ccn(-c2c(C(C)C)cccc2C(C)C)[c]1=[Au+][PH](C1CCCCC1)(C1CCCCC1)C1CCCCC1.F[P-](F)(F)(F)(F)F [Complex 6, [Au(IPr)(C18H33P)] PF6]
- IC50 (A2780cis; 72 hours treatment, MTT): 0.12 ± 0.01 µM
- Fold resistance (A2780cis/A2780) (A2780cis): 0.86
- Fold resistance (A2780cis/A2780) (A2780cis; listed as complex 6): 0.86
- IC50 (SKOV3 cells): 0.58 µM
- Apoptosis (annexin-V / 7AAD positive cells) (A2780 and A2780cis cells [1]; 48 hours, complex 6 and auranofin at IC50 and IC75, cisplatin 0.15 μM and 0.50 μM): increased in a dose-dependent manner
- Caspase-3,7 activation (A2780 and A2780cis cells [1]; FLICA, flow cytometry): activated caspase-3,7
- BAX expression (A2780 and A2780cis cells [1]; flow cytometry): induced the proapoptotic BAX
- BCL-2 expression (A2780 and A2780cis cells [1]; flow cytometry): down-regulated the antiapoptotic BCL-2
- mitROS generation (A2780 and A2780cis cells [2]): increased mitochondrial ROS (mitROS) generation in a dose-dependent manner
- Expression of G1/S phase proteins (CDKs, cyclins, E2F1, pRB) (OvCa cells): down-regulated the expression of CDk2, CDk4, CDk6, CycE, CycD1, CycD3
- Expression of cyclin D regulators (OvCa cells): increased the expression of Foxo3A and pGSK-30 and decreased that of Cdc25a, PI3KI, pERK1/2, and bRAF
- SKOV3-MCTS volume decrease with respect to control (SKOV3-MCTSs; 3 days): about 60%
- SKOV3-MCTS volume decrease with respect to control (SKOV3-MCTSs; 7 days): about 75%
- Effect on SKOV3-MCTSs at 1 μM (SKOV3-MCTSs; 1 μM): almost entirely diminished the SKOV3-MCTSs; also recorded: completely destroyed spheroids; also recorded: completely destroyed SKOV3-MCTSs
- TrxR enzymatic activity [3]: did not modify its enzymatic activity
